Measured values from PubChem BioAssay (NCI).
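Assay format: 96-well plates, 48-hour exposure. Abbreviation: GI50, concentration required for 50% inhibition of growth. TGI denotes the concentration required for complete inhibition of growth.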

What was measured:
Assay in all cases: NCI anticancer screen, dose series, 48 h; in the data active = GI50 below about 0.43 µM; inactive = the rest
RXF 393 renal = tested on: RXF 393 renal
MDA-MB-435 = tested on: MDA-MB-435
SF-295 CNS = tested on: SF-295 CNS
MDA-MB-231 breast = tested on: MDA-MB-231 breast
SK-MEL-28 melanoma = tested on: SK-MEL-28 melanoma
SN12C renal = tested on: SN12C renal
IGROV1 ovarian = tested on: IGROV1 ovarian
A498 renal = tested on: A498 renal
OVCAR-8 ovarian = tested on: OVCAR-8 ovarian
HOP-62 NSCLC = tested on: HOP-62 NSCLC
T-47D breast = tested on: T-47D breast
HS 578T breast = tested on: HS 578T breast
K-562 leukemia = tested on: K-562 leukemia
MDA-MB-468 breast = tested on: MDA-MB-468 breast
CAKI-1 renal = tested on: CAKI-1 renal
HT29 colon = tested on: HT29 colon
SNB-19 CNS = tested on: SNB-19 CNS
HCT-15 colon = tested on: HCT-15 colon
DU-145 prostate = tested on: DU-145 prostate
MCF7 breast = tested on: MCF7 breast
HCC-2998 colon = tested on: HCC-2998 colon
A549 NSCLC = tested on: A549 NSCLC
OVCAR-4 ovarian = tested on: OVCAR-4 ovarian
RPMI-8226 leukemia = tested on: RPMI-8226 leukemia
SR leukemia = tested on: SR leukemia
OVCAR-3 ovarian = tested on: OVCAR-3 ovarian
SW-620 colon = tested on: SW-620 colon
SK-OV-3 ovarian = tested on: SK-OV-3 ovarian
HOP-92 NSCLC = tested on: HOP-92 NSCLC
ACHN renal = tested on: ACHN renal
SNB-75 CNS = tested on: SNB-75 CNS
UACC-62 melanoma = tested on: UACC-62 melanoma
UO-31 renal = tested on: UO-31 renal
BT-549 breast = tested on: BT-549 breast
SF-268 CNS = tested on: SF-268 CNS
OVCAR-5 ovarian = tested on: OVCAR-5 ovarian
CCRF-CEM leukemia = tested on: CCRF-CEM leukemia
HL-60(TB) leukemia = tested on: HL-60(TB) leukemia
NCI/ADR-RES ovarian = tested on: NCI/ADR-RES ovarian
NCI-H460 lung = tested on: NCI-H460 lung
TK-10 renal = tested on: TK-10 renal
EKVX NSCLC = tested on: EKVX NSCLC
HCT-116 colon = tested on: HCT-116 colon
786-0 renal = tested on: 786-0 renal
MOLT-4 leukemia = tested on: MOLT-4 leukemia
MALME-3M melanoma = tested on: MALME-3M melanoma
KM12 colon = tested on: KM12 colon
NCI-H522 lung = tested on: NCI-H522 lung
COLO 205 colon = tested on: COLO 205 colon
NCI-H226 lung = tested on: NCI-H226 lung
SF-539 CNS = tested on: SF-539 CNS
UACC-257 melanoma = tested on: UACC-257 melanoma
U251 CNS = tested on: U251 CNS
LOX IMVI melanoma = tested on: LOX IMVI melanoma
SK-MEL-2 melanoma = tested on: SK-MEL-2 melanoma
M14 melanoma = tested on: M14 melanoma
NCI-H23 lung = tested on: NCI-H23 lung
SK-MEL-5 melanoma = tested on: SK-MEL-5 melanoma
PC-3 prostate = tested on: PC-3 prostate

NS(=O)(=O)c1cccc(Nc2nc(SCC(=O)c3ccc(F)cc3)nc3ccccc23)c1
41.3 µM: TGI (MOLT-4 leukemia)
54.3 µM: TGI (NCI-H522 lung)
48.9 µM: TGI (HL-60(TB) leukemia)
42.8 µM: TGI (MDA-MB-468 breast)
54.6 µM: TGI (SK-MEL-5 melanoma)
> 57.7 µM: TGI (RXF 393 renal) | TGI (MDA-MB-435) | TGI (SF-295 CNS) | TGI (MDA-MB-231 breast) | TGI (SK-MEL-28 melanoma) | TGI (SN12C renal) | TGI (IGROV1 ovarian) | TGI (A498 renal) | TGI (OVCAR-8 ovarian) | TGI (HOP-62 NSCLC) | TGI (T-47D breast) | TGI (HS 578T breast) | TGI (K-562 leukemia) | TGI (CAKI-1 renal) | TGI (HT29 colon) | TGI (SNB-19 CNS) | TGI (HCT-15 colon) | TGI (DU-145 prostate) | TGI (MCF7 breast) | TGI (HCC-2998 colon) | TGI (A549 NSCLC) | TGI (OVCAR-4 ovarian) | TGI (RPMI-8226 leukemia) | TGI (SR leukemia) | TGI (OVCAR-3 ovarian) | TGI (SW-620 colon) | TGI (SK-OV-3 ovarian) | TGI (HOP-92 NSCLC) | TGI (ACHN renal) | TGI (SNB-75 CNS) | TGI (UACC-62 melanoma) | TGI (UO-31 renal) | TGI (BT-549 breast) | TGI (SF-268 CNS) | TGI (OVCAR-5 ovarian) | TGI (CCRF-CEM leukemia) | TGI (NCI/ADR-RES ovarian) | TGI (NCI-H460 lung) | TGI (TK-10 renal) | TGI (EKVX NSCLC) | TGI (HCT-116 colon) | TGI (786-0 renal) | TGI (MALME-3M melanoma) | TGI (KM12 colon) | TGI (COLO 205 colon) | TGI (NCI-H226 lung) | TGI (SF-539 CNS) | TGI (UACC-257 melanoma) | TGI (U251 CNS) | TGI (LOX IMVI melanoma) | TGI (SK-MEL-2 melanoma) | TGI (M14 melanoma) | TGI (NCI-H23 lung) | TGI (PC-3 prostate)
inactive: GI50 (RXF 393 renal) 16.5 µM | GI50 (MDA-MB-435) 14.2 µM | GI50 (SF-295 CNS) 14.6 µM | GI50 (MDA-MB-231 breast) 15.9 µM | GI50 (SK-MEL-28 melanoma) 20.4 µM | GI50 (SN12C renal) 17.6 µM | GI50 (IGROV1 ovarian) 9.82 µM | GI50 (A498 renal) > 57.7 µM | GI50 (OVCAR-8 ovarian) 19.6 µM | GI50 (HOP-62 NSCLC) 22.2 µM | GI50 (T-47D breast) 3.18 µM | GI50 (HS 578T breast) 12.9 µM | GI50 (K-562 leukemia) 13 µM | GI50 (MDA-MB-468 breast) 6.23 µM | GI50 (CAKI-1 renal) 13.1 µM | GI50 (HT29 colon) 20 µM | GI50 (SNB-19 CNS) 22.3 µM | GI50 (HCT-15 colon) 11.6 µM | GI50 (DU-145 prostate) 19.9 µM | GI50 (MCF7 breast) 3.81 µM | GI50 (HCC-2998 colon) 15.7 µM | GI50 (A549 NSCLC) 26.8 µM | GI50 (OVCAR-4 ovarian) 9.34 µM | GI50 (RPMI-8226 leukemia) 12.7 µM | GI50 (SR leukemia) 15.9 µM | GI50 (OVCAR-3 ovarian) 12.9 µM | GI50 (SW-620 colon) 18.1 µM | GI50 (SK-OV-3 ovarian) 30.4 µM | GI50 (HOP-92 NSCLC) 16.4 µM | GI50 (ACHN renal) 24.7 µM | GI50 (SNB-75 CNS) 3.64 µM | GI50 (UACC-62 melanoma) 13.7 µM | GI50 (UO-31 renal) 15.5 µM | GI50 (BT-549 breast) 31.3 µM | GI50 (SF-268 CNS) 21 µM | GI50 (OVCAR-5 ovarian) 24.5 µM | GI50 (CCRF-CEM leukemia) 7.76 µM | GI50 (HL-60(TB) leukemia) 15 µM | GI50 (NCI/ADR-RES ovarian) 37.3 µM | GI50 (NCI-H460 lung) 15.1 µM | GI50 (TK-10 renal) > 57.7 µM | GI50 (EKVX NSCLC) 18.4 µM | GI50 (HCT-116 colon) 15.3 µM | GI50 (786-0 renal) 39.1 µM | GI50 (MOLT-4 leukemia) 7.43 µM | GI50 (MALME-3M melanoma) 27.1 µM | GI50 (KM12 colon) 7.42 µM | GI50 (NCI-H522 lung) 11.7 µM | GI50 (COLO 205 colon) 26.8 µM | GI50 (NCI-H226 lung) 12.1 µM | GI50 (SF-539 CNS) 20 µM | GI50 (UACC-257 melanoma) 23.4 µM | GI50 (U251 CNS) 18.6 µM | GI50 (LOX IMVI melanoma) 14.3 µM | GI50 (SK-MEL-2 melanoma) 13.5 µM | GI50 (M14 melanoma) 27.2 µM | GI50 (NCI-H23 lung) 16.5 µM | GI50 (SK-MEL-5 melanoma) 12.9 µM | GI50 (PC-3 prostate) 16.8 µM
